# Patent publication US20040071762A1, “Diagnostic test for schizophrenia, using niacin” (Scotia Holdings PLC, priority 1996, published 2004)
# Read-outs that look alike come from different tables or passages of the source.
# Tests used:
# skin [1] = details: 100-300 mg given orally, cited from earlier work
# skin [2] = assay: Topical niacin skin patch test, redness (flushing) scored 0-3; assay type: in vivo, human; details: for Percentage responding with absent [0] reddening of the skin / Percentage responding with marked [3] reddening of the skin / Percentage responding with mild [1] reddening of the skin / Percentage responding with moderate [2] reddening of the skin: 5 minutes
# From the text: The test involves the topical application of niacin solutions, preferably in a carrier such as gauze, cotton, wax or appropriate fibre or absorbent material, to the skin of any part of the body, but conveniently the forearm or upper arm. A range of solutions may be used from 0.00001M to 1 molar. A single concentration may be chosen and used but desirably use is made of a range of steps varying from two to twenty. We have found it convenient is to use a range of four solutions of 0.1, 0.01, 0.001 and 0.0001M, e.g. 0.05 ml of each, but other concentrations within the range and other numbers of steps can be used as found appropriate, both in diagnosis and in monitoring as discussed above. […] The wells or depressions may be sealed by another plastic or other strip which isolates them from the atmosphere and which can be removed immediately prior to testing. The strip with the open wells can then be applied to the skin surface with light pressure and removed after an appropriate time which may be e.g. 0.5 minutes up to 10 or 15 minutes but preferably 3 to 6 minutes.
# Both of these effects are due to vasodilatation of the small blood vessels of the skin. The redness may be scored in relation to the adjacent unaffected skin on an appropriate scale which can be either “present” or “absent”, or can be semi-quantitative, such as mild, moderate or marked, or can be made fully quantitative by use of a spectrophotometer or other appropriate instrument e.g. a blood flow meter. The oedema can likewise be scored as present or absent or can be scored semi-quantitatively or quantitatively.
# We have also used a scoring system in which the degree of redness under each patch was scored as 0=no change, 1=mild redness, 2=moderate redness and 3=marked redness. When the test is used commercially, sample colour charts may show how the test can be used with individuals of varying skin colour. With particularly dark-skinned individuals, oedema or a measurement of skin surface temperature or heat loss may be required to give the best results.
# [3] = normal controls (n=22), topical niacin 0.000. M
# [4] = normal controls (n=22), topical niacin 0.001 M
# [5] = normal controls (n=22), topical niacin 0.01 M
# [6] = normal controls (n=22), topical niacin 0.1 M
# [7] = schizophrenics (n=38), topical niacin 0.000. M
# [8] = schizophrenics (n=38), topical niacin 0.001 M
# [9] = schizophrenics (n=38), topical niacin 0.01 M
# [10] = schizophrenics (n=38), topical niacin 0.1 M
structure (smiles),measurement,setting,value
"O=C(O)c1cccnc1 [Niacin, nicotinic acid]",Flushing response to oral niacin,skin [1]; a substantial proportion of schizophrenics,fail to flush
same,Flushing response to oral niacin,skin [1]; most normal individuals,flush markedly
same,Response to topical niacin test in depressives,"skin [2]; depressives, expected by analogy with oral niacin",the same as for normal individuals
same,Percentage responding with absent [0] reddening of the skin,skin [2]; [3],35.3%
same,Percentage responding with marked [3] reddening of the skin,skin [2]; [3],17.6%
same,Percentage responding with mild [1] reddening of the skin,skin [2]; [3],29.4%
same,Percentage responding with moderate [2] reddening of the skin,skin [2]; [3],17.6%
same,Percentage responding with absent [0] reddening of the skin,skin [2]; [4],31.8%
same,Percentage responding with marked [3] reddening of the skin,skin [2]; [4],18.2%
same,Percentage responding with mild [1] reddening of the skin,skin [2]; [4],9.1%
same,Percentage responding with moderate [2] reddening of the skin,skin [2]; [4],40.9%
same,Percentage responding with absent [0] reddening of the skin,skin [2]; [5],9.1%
same,Percentage responding with marked [3] reddening of the skin,skin [2]; [5],31.8%
same,Percentage responding with mild [1] reddening of the skin,skin [2]; [5],13.6%
same,Percentage responding with moderate [2] reddening of the skin,skin [2]; [5],45.5%
same,Percentage responding with absent [0] reddening of the skin,skin [2]; [6],4.5%
same,Percentage responding with marked [3] reddening of the skin,skin [2]; [6],59.1%
same,Percentage responding with mild [1] reddening of the skin,skin [2]; [6],9.1%
same,Percentage responding with moderate [2] reddening of the skin,skin [2]; [6],27.3%
same,Percentage responding with absent [0] reddening of the skin,skin [2]; [7],88.2%
same,Percentage responding with marked [3] reddening of the skin,skin [2]; [7],0%
same,Percentage responding with mild [1] reddening of the skin,skin [2]; [7],8.8%
same,Percentage responding with moderate [2] reddening of the skin,skin [2]; [7],2.9%
same,Percentage responding with absent [0] reddening of the skin,skin [2]; [8],67.6%
same,Percentage responding with marked [3] reddening of the skin,skin [2]; [8],0%
same,Percentage responding with mild [1] reddening of the skin,skin [2]; [8],29.4%
same,Percentage responding with moderate [2] reddening of the skin,skin [2]; [8],2.9%
same,Percentage responding with absent [0] reddening of the skin,skin [2]; [9],41.2%
same,Percentage responding with marked [3] reddening of the skin,skin [2]; [9],0%
same,Percentage responding with mild [1] reddening of the skin,skin [2]; [9],41.2%
same,Percentage responding with moderate [2] reddening of the skin,skin [2]; [9],17.6%
same,Percentage responding with absent [0] reddening of the skin,skin [2]; [10],13.5%
same,Percentage responding with marked [3] reddening of the skin,skin [2]; [10],5.4%
same,Percentage responding with mild [1] reddening of the skin,skin [2]; [10],37.8%
same,Percentage responding with moderate [2] reddening of the skin,skin [2]; [10],43.2%
NC(=O)c1cccnc1 [Nicotinamide],Flushing reaction in normal individuals,"skin [2]; form passing the skin, suitability for the topical test",does not elicit the reaction
